Results reported in PMC10146186, “Modulation of the Cytotoxic Properties of Pd(II) Complexes Based on Functionalized Carboxamides Featuring Labile Phosphoryl Coordination Sites” (Pharmaceutics, 2023).
Read-outs that look alike come from different tables or passages of the source.

Tests used:
U251 glioblastoma cells = test: MTT cytotoxicity assay, U251; assay type: cell-based, human; conditions: read-out: IC50 ± SD, U251
Protocol: (§1) To characterize the antitumor potential of the resulting Pd(II) pincer complexes, their cytotoxicities against a panel of human solid and hematopoietic cancer cell lines, including colorectal carcinoma (HCT116), breast cancer (MCF7), prostate adenocarcinoma (PC3), glioblastoma (U251), ovarian adenocarcinoma (Scov3), chronic myelogenous leukemia (K562) and its resistant subclone (K562/iS9), multiple plasmacytoma (AMO1), and acute lymphoblastic leukemia (H9) cell lineages, were evaluated using the conventional MTT assay. […] For comparison, the inhibitory effects of the compounds explored on noncancerous human embryonic kidney cells HEK293 as well as transformed breast cells HBL100 and their doxorubicin-resistant analogs HBL100/Dox were also investigated under the same conditions.
(§2) The cytotoxic activity of the compounds explored was investigated on human colorectal carcinoma (HCT116), breast cancer (MCF7), prostate adenocarcinoma (PC3), glioblastoma (U251), ovarian adenocarcinoma (Scov3), chronic myelogenous leukemia (K562 and K562/iS9), multiple plasmacytoma (AMO1), and acute lymphoblastic leukemia (H9) cell lines, as well as human embryonic kidney (HEK293) and mammary epithelial (HBL100 and HBL100/Dox) cells used as representatives of pseudonormal cells. All cell lines were obtained from American Type Culture Collection (ATCC). RPMI-1640 and DMEM media were obtained from Gibco. Fetal bovine serum (FBS) was purchased from HyClone. Cells were cultured in RPMI-1640 or DMEM media supplemented with 10% FBS and 50 μg/mL gentamicin in a humidified incubator with 5% CO2 atmosphere. The cell growth inhibitory effects of the compounds were evaluated using the conventional MTT assay (ICN Biomedicals, Eschwege, Germany). Cells were seeded in triplicate at a cell density of 5 × 10^3/well in 96-well plates in 100 µL complete medium and preincubated for 24 h. The tested compounds were initially dissolved in DMSO. Then, the compounds at various concentrations were added to the media. The well plates were incubated for 48 h followed by addition of MTT solution (Sigma, Darmstadt, Germany) (20 μL, 5 mg/mL). The cells were incubated at 37 °C for further 3 h; then the culture medium was removed, and formazan crystals were dissolved in DMSO (70 μL). The absorbance of the resulting solutions was measured on a multi-well plate reader (Multiskan FC, Thermo scientific) at 530 nm to determine the percentage of surviving cells. The reported values of IC50 are the averages of three independent experiments (Table 2 and Table 3). Cisplatin (in the initial form of an infusion concentrate in natural saline solution) from a commercial source was used as the reference.

[1] = test system: Scov3 ovarian adenocarcinoma cells; test: MTT cytotoxicity assay, Scov3; assay type: cell-based, human; conditions: Scov3, MTT, 48 h exposure, read-out: IC50 ± SD, Scov3
Protocol: as §1, §2

[2] = test system: HBL100/Dox doxorubicin-resistant mammary epithelial cells; test: MTT cytotoxicity assay, HBL100/Dox; assay type: cell-based, human; conditions: for IC50: MTT, 48 h exposure, read-out: IC50 ± SD, HBL100/Dox
Protocol: as §1, §2

[3] = test system: K562 chronic myelogenous leukemia cells; test: MTT cytotoxicity assay, K562; assay type: cell-based, human; conditions: 48 h exposure, read-out: IC50 ± SD, K562
Protocol: as §1, §2

MCF7 breast cancer cells = test: MTT cytotoxicity assay, MCF7; assay type: cell-based, human; conditions: for IC50: MCF7, MTT, 48 h exposure, read-out: IC50 ± SD, MCF7
Protocol: as §1, §2

[4] = test system: HEK293 embryonic kidney cells; test: MTT cytotoxicity assay, HEK293; assay type: cell-based, human; conditions: HEK293 noncancerous cells, 48 h exposure, read-out: IC50 ± SD, HEK293
Protocol: as §1, §2

[5] = test system: HBL100 mammary epithelial cells; test: MTT cytotoxicity assay, HBL100; assay type: cell-based, human; conditions: read-out: IC50 ± SD, HBL100
Protocol: as §1, §2

[6] = test system: K562/iS9 resistant chronic myelogenous leukemia cells; test: MTT cytotoxicity assay, K562/iS9; assay type: cell-based, human; conditions: read-out: IC50 ± SD, K562/iS9
Protocol: as §1, §2

[7] = test system: PC3 prostate adenocarcinoma cells; test: MTT cytotoxicity assay, PC3; assay type: cell-based, human; conditions: 48 h exposure, read-out: IC50 ± SD, PC3
Protocol: as §1, §2

[8] = test system: HCT116 colorectal carcinoma cells; test: MTT cytotoxicity assay, HCT116; assay type: cell-based, human; conditions: read-out: IC50 ± SD, HCT116
Protocol: as §1, §2

[9] = test system: AMO1 multiple plasmacytoma cells; test: MTT cytotoxicity assay, AMO1; assay type: cell-based, human; conditions: for IC50: AMO1, MTT, 48 h exposure, read-out: IC50 ± SD, AMO1
Protocol: as §1, §2

K562 cells = test: MTT assay with complexes preliminarily kept in DMSO–RPMI 1640, K562; assay type: cell-based, human; conditions: K562, kept in DMSO–RPMI 1640 (1/10 by volume) for 48 h before experiment, 72 h incubation
Protocol: (§3) The observed dependences correlate well with our previous findings on the lability of the phosphoryl sites in palladocycles 2a,b, 3a,b and can be rationalized in terms of their coordination behavior. […] However, the presence of an additional competitive chloride anion makes complex 2b potentially more susceptible to decoordination of the phosphoryl arm. […] At least the N,N-bidentately bound core remained intact in the mentioned media over a period of 48 h.
(§4) Figure S51. Effect of complexes 2b (a) and 3b (b) dissolved either in neat DMSO or DMSO–RPMI 1640 mixture on AMO1 and K562 cells (cell viability was defined by the conventional MTT assay according to the methodology described in the Experimental section with slight modifications: the complexes explored were preliminarily kept in neat DMSO or DMSO–RPMI 1640 mixture for 2 days before the experiments and the following incubation period […]

[10] = 31P NMR stability study in CDCl3–(CD3)2SO mixture; assay type: physicochemical; conditions: commensurable decomposition degree reached only in a week
Protocol: as §3

AMO1 cells = test: MTT assay with complexes preliminarily kept in DMSO–RPMI 1640, AMO1; assay type: cell-based, human; conditions: AMO1, kept in DMSO–RPMI 1640 (1/10 by volume) for 48 h before experiment, 72 h incubation
Protocol: as §3, §4

[11] = test system: H9 acute lymphoblastic leukemia cells; test: MTT cytotoxicity assay, H9; assay type: cell-based, human; conditions: 48 h exposure, read-out: IC50 ± SD, H9
Protocol: as §1
as §2, with “Then, the compounds at various concentrations were added to the media. The well plates were incubated for 48 h followed by addition of MTT solution (Sigma, Darmstadt, Germany) (20 μL, 5 mg/mL). The cells were incubated at 37 °C for further 3 h; then the culture medium was removed, and formazan crystals were dissolved in DMSO (70 μL).” left out, “The reported values of IC50 are the averages of three independent experiments (Table 2 and Table 3). Cisplatin (in the initial form of an infusion concentrate in natural saline solution) from a commercial source was used as the reference.” left out

[12] = Solubility and stability in solvents (observation); assay type: physicochemical; conditions: for stability in DMSO: strongly coordinating media (DMSO)
Excerpt: To further explore the effect of lability of coordination sites on the biological activity of this type of cyclopalladated complexes, we decided to modify the second arm in the O,N,N-ligand framework, specifically the ancillary N-donor group, replacing the pyridine unit for a more rigid quinoline moiety. The reaction of [amino(phenyl)methyl]diphenylphosphine oxide hydrochloride with in situ generated quinoline-2-carboxylic acid chloride smoothly furnished functionalized amide 4, which, in turn, readily underwent direct cyclopalladation, affording Pd(II) pincer complex 5 (Scheme 4). The molecular structure of this palladocycle is presented in Figure 4, while its main geometric parameters are listed in Table S1 in the SI. Unfortunately, complex 5 appeared to be insoluble in common organic solvents and unstable in strongly coordinating media (e.g., DMSO); a possible reason for the stability issues is its highly constrained structure. Therefore, it was withdrawn from the cytotoxicity studies.
A solution of PdCl2(NCPh)2 (70 mg, 0.182 mmol) in CH2Cl2 (4 mL) was added dropwise to a solution of ligand 4 (84 mg, 0.182 mmol) and Et3N (26 μL, 0.186 mmol) in CH2Cl2 (6 mL). The reaction mixture was left under ambient conditions for 1 day and then filtered through a pad of cotton. The filtrate was evaporated to dryness. The resulting residue was washed with Et2O and purified by column chromatography on silica gel (eluent: CHCl3–EtOH (25:1)) to give 60 mg of the target pincer complex as a yellow crystalline solid. Yield: 55%. Mp: >175 °C (dec.). ^31P{^1H} NMR (161.98 MHz, CH2Cl2/D2O): δ 72.32 ppm (the ^1H and ^13C{^1H} NMR spectroscopic data for complex 5 were not obtained due to its low solubility in common organic solvents (e.g., chlorinated hydrocarbons and acetonitrile) and instability in strongly coordinating media (e.g., DMSO)). IR (KBr, ν/cm^–1): 521(w), 534(w), 561(s), 586(w), 699(m), 725(w), 766(w), 852(w), 927(vw), 998(w), 1024(m), 1042(m), 1121(m) (νP=O), 1154(w), 1341(w), 1378(br, m), 1437(m), 1461(w), 1493(w), 1516(w), 1560(w), 1595(w), 1633(s) (νC=O), 2923(vw), 3064(w). […]

Row | SMILES | IC50 (U251 glioblastoma cells; 48 h exposure) | IC50 [1] | IC50 [2] | IC50 [3] | IC50 (MCF7 breast cancer cells) | IC50 [4] | IC50 ([5]; 48 h exposure) | IC50 ([6]; 48 h exposure) | IC50 [7] | IC50 ([8]; 48 h exposure) | IC50 [9] | stability in DMSO [12] | also measured
1 | N.N.[Cl][Pt][Cl] [Cisplatin, reference compound] | 16.5 ± 1.5 µM | 21 ± 3 µM | 23.6 ± 3.6 µM | 15.5 ± 0.5 µM | 25 ± 4 µM | 12.5 ± 1.5 µM | 14.6 ± 3.6 µM | 16 ± 2 µM | 16 ± 3 µM | 18 ± 2 µM | 3.2 ± 0.6 µM |  | 
2 | O=C(c1ccccn1)[N]([Pd][Cl])C(c1ccccc1)P(=O)(c1ccccc1)c1ccccc1 (stereo not drawn) [complex 3b, [κ^3-O,N,N-(L)Pd(II)Cl]] | 43 ± 5 µM | 40 ± 0.6 µM | 28 ± 2.6 µM | 6.4 ± 0.4 µM | 13 ± 1.5 µM | 12.5 ± 3.5 µM | 17.8 ± 0.8 µM | 7.2 ± 1 µM | 16 ± 2 µM | 4 ± 2 µM | 2.7 ± 0.5 µM |  | cytotoxic activity after keeping in DMSO–RPMI 1640 mixture vs neat DMSO (K562 cells): comparable; stability in CDCl3–(CD3)2SO mixture [10]: quite stable; cytotoxic activity after keeping in DMSO–RPMI 1640 mixture vs neat DMSO (AMO1 cells): comparable; IC50 [11]: 3.2 ± 0.2 µM
3 | O=C(c1ccc2ccccc2n1)[N]([Pd][Cl])C(c1ccccc1)P(=O)(c1ccccc1)c1ccccc1 (stereo not drawn) [complex 5, [κ^3-O,N,N-(L)Pd(II)Cl]] |  |  |  |  |  |  |  |  |  |  |  | unstable | solubility in common organic solvents ([12]; common organic solvents): insoluble
4 | O=C(c1cccc2cccnc12)[N](CP(=O)(c1ccccc1)c1ccccc1)[Pd][Cl] [complex 7, [κ^3-O,N,N-(L)Pd(II)Cl]] |  |  |  |  | 58 ± 12 µM | 23 ± 3 µM |  |  | 52 ± 10 µM | 38 ± 6 µM |  | stable | 
5 | O=C(NCP(=O)(c1ccccc1)c1ccccc1)c1ccccn1 [ligand 1a, N-[(Diphenylphosphoryl)methyl]picolinamide] |  |  |  |  |  |  |  |  |  |  |  |  | IC50 (U251 glioblastoma cells; Homo sapiens, U-251, 48 h exposure): > 100 µM; IC50 ([1]; Homo sapiens): > 100 µM; percentage of live cells ([2]; compound concentration 100.0 μM, 48 h): 35% ^3; IC50 ([3]; Homo sapiens): > 80 µM; percentage of live cells (MCF7 breast cancer cells; MCF7, compound concentration 100.0 μM, 48 h): 46% ^3; IC50 ([4]; Homo sapiens): > 100 µM; IC50 ([5]; Homo sapiens, HBL-100, 48 h exposure): > 100 µM; IC50 ([6]; Homo sapiens, K562i/S9, 48 h exposure): > 80 µM; IC50 ([11]; Homo sapiens): > 80 µM; IC50 ([7]; Homo sapiens): > 100 µM; IC50 ([8]; Homo sapiens, HCT-116, 48 h exposure): > 100 µM; percentage of live cells ([9]; AMO1, compound concentration 80.0 μM, 48 h): 41% ^3
